These results are taken from ChEMBL document CHEMBL5360555, “Structure-based discovery of novel α-aminoketone derivatives as dual p53-MDM2/MDMX inhibitors for the treatment of cancer” (Eur J Med Chem, 2023).

In assay [1] the target is E3 ubiquitin-protein ligase Mdm2 (Homo sapiens, UniProt Q00987). Kind of assay: Binding affinity to MDM2 (1 to 118 residues) (unknown origin) assessed as inhibition constant incubated for 1 hr measured by fluorescence polarization assay. In general terms: Polarisation of emitted light reports the rotation of a fluorescent probe.
Sequence of E3 ubiquitin-protein ligase Mdm2 (Q00987 whole entry, the tested form may be a part): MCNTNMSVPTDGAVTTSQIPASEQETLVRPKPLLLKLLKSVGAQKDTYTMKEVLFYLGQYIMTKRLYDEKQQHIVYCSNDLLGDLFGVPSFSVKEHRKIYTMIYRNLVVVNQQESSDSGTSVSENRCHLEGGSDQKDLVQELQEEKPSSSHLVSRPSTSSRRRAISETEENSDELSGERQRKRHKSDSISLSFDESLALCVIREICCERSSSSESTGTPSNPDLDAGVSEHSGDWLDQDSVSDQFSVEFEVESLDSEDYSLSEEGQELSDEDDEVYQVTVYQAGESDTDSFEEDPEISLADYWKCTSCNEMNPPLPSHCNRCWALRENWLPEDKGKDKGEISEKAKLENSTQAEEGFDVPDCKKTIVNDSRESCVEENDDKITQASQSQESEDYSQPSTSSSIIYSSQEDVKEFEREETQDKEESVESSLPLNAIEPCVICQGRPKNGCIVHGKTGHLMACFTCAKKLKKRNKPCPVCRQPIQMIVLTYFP
Assay [2] deals with HCT-116. As to the kind of experiment: Antiproliferative activity against human HCT-116 cells overexpressing MDM2 assessed as cell growth inhibition incubated for 72 hrs by CCK-8 assay. In kind it is functional, cell-based. The following applies: HCT-116, 72 h. A general note: Formazan colour is commonly taken as a measure of viable cells.
The subject of assay [3] is SH-SY5Y. Kind of assay: Antiproliferative activity against human SH-SY5Y cells overexpressing MDMX assessed as cell growth inhibition incubated for 72 hrs by CCK-8 assay. In kind it is functional, cell-based.
Assay [4] in a line: Antiproliferative activity against human HCT116-p53-null cells overexpressing MDMX assessed as cell growth inhibition incubated for 72 hrs by CCK-8 assay. Type of assay: functional, cell-based.
The next assay has as its system SJSA-1. As to the kind of experiment: Antiproliferative activity against human SJSA-1 cells overexpressing MDM2 assessed as cell growth inhibition incubated for 72 hrs by CCK-8 assay. The conditions noted are these: SJSA-1, 72 h. In kind it is functional, cell-based.
Assay [5] has as its system HCT-116. Kind of assay: Antiproliferative activity against human HCT-116 cells overexpressing MDM2 assessed as cell growth inhibition incubated at 10 uM for 72 hrs by CCK-8 assay relative to control. Type of assay: functional.
The subject of assay [6] is SH-SY5Y. Kind of assay: Antiproliferative activity against human SH-SY5Y cells overexpressing MDMX assessed as cell growth inhibition incubated at 10 uM for 72 hrs by CCK-8 assay relative to control. In kind it is functional.

On to `Cc1cc(Cl)cc(NC(C(=O)c2ccc(Cl)cc2)c2ccc(F)c(Cl)c2)c1` (stereo unspecified), for which, in assay [1], the inhibition constant Ki came out at 17.4 µM. In addition, the IC50 was 16.4 µM with HCT-116 [2] and 17.5 µM with SH-SY5Y [3].
`O=C(c1ccc(Cl)cc1)C(Nc1ccc(Cl)c(Cl)c1)c1ccc(Cl)c(Cl)c1` (stereo unspecified): the Ki in assay [1] amounted to 4.29 µM. The IC50 with HCT-116 [2] was found to be 12.3 µM; in the assay with SH-SY5Y [3], 14.4 µM.
As to `O=C(c1ccc(Cl)cc1)C(Nc1cccc(Cl)c1)c1ccc(F)cc1Cl` (stereo unspecified), the Ki in assay [1] is 6.92 µM. Also, the IC50 in the assay with HCT-116 [2] turned out to be 16.6 µM; in the assay with SH-SY5Y [3] it was 14.1 µM.
With `O=C(c1ccc(Cl)cc1)C(Nc1ccc(Cl)cc1)c1cc(F)cc(F)c1` (stereo unspecified), the inhibitory constant (Ki) in assay [1] was found to be 24.7 µM. Moreover, the IC50 in the assay with HCT-116 [2] and in the assay on SH-SY5Y [3] was > 40 µM throughout.
Turning to `O=C(c1ccc(Cl)cc1)C(Nc1ccccc1)c1ccccc1` (stereo unspecified), the Ki in assay [1] worked out at 18.3 µM. Moreover, the 50% inhibitory concentration (IC50) in the assay on HCT-116 [2] and in the assay on SH-SY5Y [3] was > 40 µM in each case.
Take `COc1ccc(C(=O)C(Nc2ccc(C)cc2)c2ccc(OC)cc2)cc1` (stereo unspecified): the inhibitory constant (Ki) in assay [1] was 16.5 µM. Further, the 50% inhibitory concentration (IC50) in the assay with HCT-116 [2] stood at 33 µM; in the assay with SH-SY5Y [3] it was 32.8 µM.
As to `COC(=O)CCCC(=O)N(c1ccc(Cl)cc1)C(C(=O)c1ccc(Cl)cc1)c1ccc(F)cc1Cl` (stereo unspecified), the Ki in assay [1] was 1.15 µM. For the same compound, the IC50 in the assay with HCT-116 [2] turned out to be 16.1 µM; in the assay with SH-SY5Y [3], 14.2 µM; in assay [4], 28.2 µM; in the assay with SJSA-1, 14.9 µM.
With `O=C(c1ccc(Cl)cc1)C(Nc1ccc(F)cc1)c1ccc(F)cc1Cl` (stereo unspecified), the inhibition constant (Ki) in assay [1] was found to be 7.34 µM. The IC50 stood at 15.6 µM with HCT-116 [2] and 17.2 µM in the assay with SH-SY5Y [3].
As for `O=C(c1ccc(Cl)cc1)C(Cc1ccsc1)C(=O)c1cc(F)ccc1F` (stereo unspecified), in assay [1], the Ki came out at 14 µM. The inhibition at 10 µM in the assay on HCT-116 [5] is 31.8%; with SH-SY5Y [6], 15.3%.
For `O=C(c1ccc(Cl)cc1)C(Cc1ccc(Cl)cc1)C(=O)c1cc(F)ccc1F` (stereo unspecified), in that order: 23.5 µM, 5.64% and 10.9%.
In the case of `O=C(c1ccc(Cl)cc1)C(Nc1ccc(Cl)cc1)c1ccc(F)c(Cl)c1` (stereo unspecified), the Ki in assay [1] was determined as 24.2 µM. In addition, the half-inhibitory concentration (IC50) is 29.2 µM in the assay with HCT-116 [2] and 21.3 µM in the assay with SH-SY5Y [3].
Regarding `O=C(c1ccc(Cl)cc1)C(Cc1ccc(Cl)nc1)C(=O)c1cc(F)ccc1F` (stereo unspecified), in assay [1], the Ki turned out to be 15.3 µM. Also, the inhibition at 10 µM came to 39.4% in the assay with HCT-116 [5] and 20.1% with SH-SY5Y [6].
The like results for `O=C(c1ccc(Cl)cc1)C(Cc1ccccc1Cl)C(=O)c1cc(F)ccc1F` (stereo unspecified) were, in that order, 15.1 µM, 25.4% and 22.7%.
For `O=C(c1ccccc1)C(Cc1ccccc1)C(=O)c1ccccc1`, in that order: 25.8 µM, 11.2% and 9.88%.
Turning to `O=C(c1ccc(Cl)cc1)C(Nc1cc(F)cc(F)c1)c1ccc(Cl)cc1F` (stereo unspecified), the Ki in assay [1] came out at 2.45 µM. For the same compound, the IC50 in the assay with HCT-116 [2] turned out to be 13.3 µM; in the assay with SH-SY5Y [3] it was 13.6 µM.
The like results for `COc1ccc(NC(C(=O)c2ccc(Cl)cc2)c2ccc(F)cc2Cl)cc1` (stereo unspecified) were, in that order, 27.8 µM, 30.1 µM and 29.3 µM.
The like results for `O=C(c1ccc(Cl)cc1)C(Nc1ccc(Cl)cc1)c1ccc(F)cc1Cl` (stereo unspecified) were, in that order, 0.91 µM, 11.7 µM and 9.84 µM.
In the case of `COC(=O)CCCCC(=O)N(c1ccc(Cl)cc1)C(C(=O)c1ccc(Cl)cc1)c1ccc(F)cc1Cl` (stereo unspecified), the inhibitory constant (Ki) in assay [1] is 0.82 µM. For the same compound, the IC50 is 14.1 µM with HCT-116 [2], 13.7 µM in the assay with SH-SY5Y [3], 37.2 µM in assay [4] and 12.3 µM with SJSA-1.
The like results for `O=C(O)CCCCC(=O)N(c1ccc(Cl)cc1)C(C(=O)c1ccc(Cl)cc1)c1ccc(F)cc1Cl` (stereo unspecified) were, in that order, 0.71 µM, 10.4 µM, 9.47 µM, 26.3 µM and 11.4 µM.
In the case of `COc1cccc(CC(C(=O)c2ccc(Cl)cc2)C(=O)c2cc(F)ccc2F)c1` (stereo unspecified), the inhibition constant (Ki) in assay [1] was found to be 14.6 µM. For the same compound, the inhibition at 10 µM in the assay on HCT-116 [5] was 26.3%; in the assay with SH-SY5Y [6], 18.3%.
For `O=C(c1ccc(Cl)cc1)C(Cc1cc2ccccc2cn1)C(=O)c1cc(F)ccc1F` (stereo unspecified), in that order: 21.8 µM, 36.7% and 9.44%.
As for `COc1ccc(C(=O)C(Nc2ccccc2)c2ccccc2)cc1` (stereo unspecified), in assay [1], the inhibition constant Ki was 25.8 µM. For the same compound, the IC50 in the assay with HCT-116 [2] and in the assay with SH-SY5Y [3] was > 40 µM throughout.
For the compound `O=C(c1ccc(Br)cc1)C(Nc1ccc(Cl)cc1)c1ccc(Cl)cc1` (stereo unspecified), the Ki in assay [1] was found to be 13.2 µM. The results for the IC50 in the assay on HCT-116 [2] and in the assay on SH-SY5Y [3] were 21.9 µM and 20.4 µM, respectively.
With `O=C(O)/C=C/C(=O)N(c1ccc(Cl)cc1)C(C(=O)c1ccc(Cl)cc1)c1ccc(F)cc1Cl` (stereo unspecified), in assay [1], the inhibitory constant (Ki) turned out to be 1.1 µM. In addition, the IC50 in the assay on HCT-116 [2] was determined as 15.4 µM; with SH-SY5Y [3], 15 µM; in assay [4], 31.3 µM; with SJSA-1, 15.6 µM.
Take `O=C(c1ccc(Cl)cc1)C(Cc1cccc(C(F)(F)F)c1)C(=O)c1cc(F)ccc1F` (stereo unspecified): in assay [1], the Ki worked out at 13.4 µM. Further, the inhibition at 10 µM in the assay on HCT-116 [5] turned out to be 48.4%; in the assay on SH-SY5Y [6], 42.9%.
Consider `COC(=O)/C=C/C(=O)N(c1ccc(Cl)cc1)C(C(=O)c1ccc(Cl)cc1)c1ccc(F)cc1Cl` (stereo unspecified), for which the Ki in assay [1] came to 1.46 µM. Moreover, the IC50 in the assay on HCT-116 [2] was 18.9 µM; in the assay on SH-SY5Y [3], 19.5 µM; in assay [4] it was 37.1 µM; in the assay on SJSA-1, 17.4 µM.
Consider `O=C(c1ccc(F)cc1)C(Nc1ccc(Cl)cc1)c1ccc(Cl)cc1` (stereo unspecified), for which, in assay [1], the Ki was 12.3 µM. For the same compound, the values for the 50% inhibitory concentration (IC50) in the assay with HCT-116 [2] and with SH-SY5Y [3] were 18.8 µM and 15 µM, respectively.
For `O=C(c1ccccc1)C(Nc1ccccc1)c1ccccc1` (stereo unspecified), in that order: 38.2 µM, > 40 µM and > 40 µM.
The like results for `O=C(c1ccc(Cl)cc1)C(Nc1ccc(Cl)cc1)c1cc(F)ccc1F` (stereo unspecified) were, in that order, 14.9 µM, 21.5 µM and 21.8 µM.
Consider `O=C(c1ccc(Cl)cc1)C(Nc1cccc(Cl)c1F)c1ccc(Cl)c(Cl)c1` (stereo unspecified), for which the inhibitory constant (Ki) in assay [1] was determined as 2.13 µM. Further, the values for the half-maximal inhibitory concentration (IC50) in the assay with HCT-116 [2] and in the assay with SH-SY5Y [3] were 11.1 µM and 11 µM, respectively.
For `O=C(O)CCCC(=O)N(c1ccc(Cl)cc1)C(C(=O)c1ccc(Cl)cc1)c1ccc(F)cc1Cl` (stereo unspecified), in assay [1], the Ki was determined as 0.78 µM. Moreover, the IC50 with HCT-116 [2] came to 10.1 µM; in the assay on SH-SY5Y [3], 11.4 µM; in assay [4] it was 29.6 µM; in the assay with SJSA-1, 9.83 µM.
On to `COC(=O)CCC(=O)N(c1ccc(Cl)cc1)C(C(=O)c1ccc(Cl)cc1)c1ccc(F)cc1Cl` (stereo unspecified), for which the Ki in assay [1] stood at 1.39 µM. The IC50 with HCT-116 [2] came out at 19.6 µM; with SH-SY5Y [3], 20.8 µM; in assay [4], 32.4 µM; in the assay with SJSA-1, 18.9 µM.
As for `Cc1cc(Cl)cc(NC(C(=O)c2ccc(F)cc2)c2ccc(F)c(Cl)c2)c1` (stereo unspecified), the Ki in assay [1] came out at 19.7 µM. Moreover, the results for the IC50 with HCT-116 [2] and with SH-SY5Y [3] were 18.5 µM and 18.2 µM, respectively.
As for `O=C(c1ccc(Cl)cc1)C(Nc1cc(F)cc(F)c1)c1ccc(Cl)c(Cl)c1` (stereo unspecified), the Ki in assay [1] came to 6.86 µM. Further, the IC50 was found to be 13.5 µM in the assay on HCT-116 [2] and 13.1 µM in the assay on SH-SY5Y [3].
For `O=C(O)CCC(=O)N(c1ccc(Cl)cc1)C(C(=O)c1ccc(Cl)cc1)c1ccc(F)cc1Cl` (stereo unspecified), the inhibitory constant (Ki) in assay [1] was 1.07 µM. In addition, the half-inhibitory concentration (IC50) with HCT-116 [2] worked out at 14.2 µM; in the assay with SH-SY5Y [3], 8.13 µM; in assay [4] it was 36.4 µM; in the assay with SJSA-1 it was 12 µM.

What is called Ki is a measure of affinity in units of concentration, obtained from inhibition or displacement. By IC50 is commonly meant the concentration that gives 50% inhibition. By inhibition is commonly meant the percentage by which the read-out fell short of the control.
